Key:
[1] = In vitro rat skin permeability test (Test Example 1)
Experimental: The rat abdominal skin was exfoliated, the dermis side of the skin was directed to a side of a receptor layer, and its inside was filled with phosphate buffered saline. Water kept at 37° C. was circulated in a water jacket.

[2] = background art statement; cited from earlier work

releasing of ketoprofen (permeated amount through excised rat skin) ([1]; Comparative Study (2), FIG. 3, patch with ketoprofen and lidocaine (Comparative Example 4) versus only ketoprofen (Comparative Example 3))	releasing effect of the anti-inflammatory analgesic obtained by formulating lidocaine ([1]; summary of Comparative Studies (1) to (3))	Compound	solubility in various solvents [2]
inhibited significantly	not observed	CC(C(=O)O)c1cccc(C(=O)c2ccccc2)c1 (stereo not drawn) [ketoprofen]	
		O=C(O)Cc1ccc(-c2ccccc2)cc1 [Felbinac]	very low

— US8932626B2, “Felbinac-containing transdermally absorbable preparation” (Teikoku Seiyaku Co., Ltd., priority 2009, dated 2015)
